ChEMBL document CHEMBL5233225, “Para-sulfonatocalix[n]arene-based biomaterials: Recent progress in pharmaceutical and biological applications” (Eur J Med Chem, 2020)

Key:
[1] = Haemolytic activity in human RBC measured after 30 mins by spectrophotometric analysis; format: toxicity, cell-based, Erythrocyte; settings: red blood cells (RBC), read-out: Activity
K562 = test: Photodynamic antitumor activity against human K562 cells assessed as mortality rate preincubated for 24 hrs followed by irradiation by UV-VIS spectrophotometer; format: functional

| SMILES | hemolysis at 0.5 h [1] | Activity (K562) |
| --- | --- | --- |
| O=S(=O)(O)c1cc2c(O)c(c1)Cc1cc(S(=O)(=O)O)cc(c1O)Cc1cc(S(=O)(=O)O)cc(c1O)Cc1cc(S(=O)(=O)O)cc(c1O)Cc1cc(S(=O)(=O)O)cc(c1O)Cc1cc(S(=O)(=O)O)cc(c1O)C2 | 12% | 60% |
| O=S(=O)(O)c1cc2c(O)c(c1)Cc1cc(S(=O)(=O)O)cc(c1O)Cc1cc(S(=O)(=O)O)cc(c1O)Cc1cc(S(=O)(=O)O)cc(c1O)Cc1cc(S(=O)(=O)O)cc(c1O)Cc1cc(S(=O)(=O)O)cc(c1O)Cc1cc(S(=O)(=O)O)cc(c1O)Cc1cc(S(=O)(=O)O)cc(c1O)C2 | 29% | 30% |
